Data as given in patent publication US20090082303A1, “DRUG FOR PREVENTING AND TREATING ATHEROSCLEROSIS” (Takeda Pharmaceutical Company Limited, priority 2004, published 2009).

How the values were obtained:
human GM3 synthase [1] = assay: GM3 synthase inhibitor screening (2): Phospholipid FlashPlate, CMP-[14C] sialic acid; assay type: biochemical; conditions: without CMP = 1
Method: (§1) The cell line stably expressing human GM3 synthase, which was established by transducing human GM3 synthase gene into RAW264.7 strain purchased from ATCC (Raschke W C, et al., Cell, Vol. 15, pp. 261-267, 1978) with retrovirus vector, was cultured in 10% FBS-DMEM culture medium. After culturing to confluent state, the cells were washed once with PBS and harvested. After weighing wet cells, the cells were suspended in 3 (three) volumes of buffer solution (15 mM sodium cacodilate (pH6.5), 5% glycerol). By ultrasonication, the cells were disrupted, and the supernatant, of which cell debris was excluded by centrifugation, was used as a crude enzyme solution. Protein concentration of the crude enzyme solution was determined using BCA protein assay kit(BIO RAD, Inc.).
Coating of lactosylceramide, the substrate for GM3 synthase to Phospholipid FlashPlate (PerkinElmer, Inc.) was carried out by the method as described below. 200 μM lactosylceramide-reaction buffer solution consisting of 100 mM sodium cacodylate (pH6.5) and 10 mM MgCl2 was dispensed on the plate at 200 μl/well and followed by standing at room temperature for overnight. After washing the plate once with PBS, 30 μM lactosylceramide-reaction buffer solution was dispensed at 70 μl/well.
Ten microliter of the crude enzyme solution prepared by the procedure in EXAMPLE 4, 10 μl of CMP solution and 10 μl of 500 μM CMP-[^14C] sialic acid (Amersham; 5×10^4 cpm/well) were admixed and incubated at 37° C. for 3 (three) hours. Radioactivity was measured by Topcount (PerkinElmer, Inc.).
A well, in which buffer solution for cell suspension was added instead of the crude enzyme was used as a blank. A value obtained by subtract the cpm value of blank well from the cpm value of sample well was used as a value for enzyme activity.
Relative value was calculated based on the conditions without treatment of CMP as 1 (one).

human GM3 synthase [2] = assay: GM3 synthase inhibitor screening (1): BODIPY-lactosylceramide, HPTLC fluorescence; assay type: biochemical; conditions: 73 without CMP
Method: as §1
BODIPY-lactosylceramide (Molecular Probes, Inc.) in chloroform solution was dried in Eppendorf tube under nitrogen flow. 4× reaction buffer solution consisting of 400 mM sodium cacodylate (pH6.5), 1.6% Triton X-100, 40 mM MgCl2 and 8 mM 2,3 dehydro-2-deoxy-N-acetylneuraminic acid was added to the tube. After vortexing, it was sufficiently dissolved by ultrasonication for 20 seconds in sonicator bath and was used as a substrate solution.
Ten μl of substrate solution, 10 μl of 800 μM CMP-sialic acid, 10 μl of crude enzyme solution and 10 μl of sample were admixed and followed by incubating at 37° C. for one hour. As a sample, cytidine mono phosphate (CMP), wherein the inhibitory effect to GM3 synthase activity is reported, was used (Biochem. Biophys. Res. Commun., Vol. 193, pp. 585-590, 1993). One milliliter of chloroform/methanol mixture (2:1) was added to the reaction mixture to terminate the reaction. After mixing, ultrasonication was done for 30 minutes in sonicator bath. Supernatant was recovered by centrifugation at 15,000 rpm for 5 minutes. Pellet was further washed with 200 μl of chloroform/methanol mixture (2:1) and recovered its supernatant by centrifugation at 15,000 rpm for 5 minutes. Collected supernatant was dried under nitrogen flow, and residue was re-suspended in 50 μl of chloroform/methanol mixture (2:1). Twenty μl of the supernatant isolated by centrifugation was spotted on HPTLC (Merck, Inc.) and was developed with solvent system consisting of chloroform/methanol/0.2% CaCl2 aqueous solution (50:45:10). After development, fluorescent intensity was measured with LAS-1000 (Fuji Film, Inc.). Fluorescent intensity of both the substrate, BODIPY-lactosylceramide and the product, BODIPY-GM3 was measured, respectively to calculate a ratio of GM3 produced to lactosylceramide added. The activity was calculated as an amount of GM3 (nmol) produced/hour/mg of protein in the crude enzyme solution.
GM3 synthase activity(nmol/mg/hr)=BODIPY-GM3(AU)/(BODIPY-lactosylceramide(AU)+BODIPY-GM3(AU))×10 nmol×1/(protein weight (mg)×reaction time(hr))
AU means a numerical value determined with LAS-1000.

GM3 synthase = assay: Effect of shRNA expressing retrovirus on GM3 synthase activity in RAW264.7 strain; assay type: cell-based; conditions: crude enzyme from retrovirus-infected RAW264.7; uninfected RAW264.7 = 1
Method: RAW264.7 strain purchased from ATCC (Raschke W C, et al., Cell, Vol. 15, pp. 261-267, 1978) was suspended in 10% FBS-DMEM culture medium to be 1×10^5 cells/ml, and was seeded on 12-well plate at 1 ml/well. After overnight incubation at 37° C. in the presence of 5% CO2, retrovirus, which expressed sequences for shRNA (short hairpin RNA), SHI (SEQ ID NO: 5) or SH3 (SEQ ID NO: 6), was infected to RAW264.7 strain. After overnight culture, the medium was replaced with 10% FBS-DMEM culture medium and the cells were cultured to confluent state. Using these cells, in accordance with the method in EXAMPLE 4, crude enzyme was prepared to assay GM3 synthase activity. Based on the value of the enzyme activity from RAW264.7 strain as 1 (one), the value from the virus-infected cells was calculated as relative value.

RAW264.7 strain = assay: Effect of GM3 synthase knock-down on cholesterol efflux from RAW264.7 strain; assay type: cell-based; conditions: [3H] cholesterol efflux to Apolipoprotein A1 20 μg/ml, 6 hours; uninfected RAW264.7 = 1
Method: RAW264.7 strain infected with the retrovirus that expresses shRNA targeting GM3 synthase was suspended in 10% FBS-DMEM culture medium to be 1.5-2×10^6 cells/ml and was seeded on 12-well plate at 1 mL/well. After overnight culture at 37° C. in the presence of 5% CO2, the cells were washed with PBS. Then, after adding 1% FBS-DMEM culture medium, which contained [^3H] cholesterol-labeled βVLDL (final concentration: 150 μg of total cholesterol/ml), the cells were cultured for overnight. The cells were washed twice with 0.2% BSA-PBS and further washed with PBS. After replacing the medium with 0.1% BSA-DMEM culture medium, the cells were cultivated for one day. After replacing 20 μg/ml of Apolipoprotein A1 containing 0.1% BSA-DMEM culture medium, the cells were cultured for 6 hours. Cultured supernatant was collected, and radioactivity of the supernatant, from which cell debris was removed by centrifugation, was measured with the liquid scintillation counter. […] After incubation at 37° C. for overnight, radioactivity of the cell lysate was measured with the liquid scintillation counter. A ratio of the radioactivity of the culture supernatant to the summation of the radioactivity of the culture supernatant and the cell lysate was calculated. […] Based on the value from RAW264.7 strain as 1 (one), the value from the virus-infected cells was calculated as relative value.

mouse GM3 synthase = assay: Effect of IFN-γ on expression of mouse GM3 synthase in mouse peritoneal macrophage cells (TaqMan PCR); assay type: cell-based; conditions: 24 hours, GAPDH internal standard, ΔΔCt, without IFN-γ = 1
Method: In accordance with the method by Hakamada et al. [Jikken-igaku (Experimental Medicine), Supplementary Volume, Vol. 14, No. 12, “Junnkan Kenkyu Protocol (Protocol for study on circulation)”, pp. 49-52, 1996], from C57BL/6j mouse after the intraperitoneal injection of thioglycolate, peritoneal macrophage was prepared. The cells were suspended in 10% FBS-DMEM culture medium to be 1.5-2×10^6 cells/mL, and were seeded on 12-well plate at 1 mL/well. After overnight culture at 37° C. in the presence of 5% CO2, the cells were washed with PBS. The 1% FBS-DMEM culture medium containing mouse recombinant IFN-γ at prescribed concentration was added to the cells, and cultivation was performed for 24 hours.
After washing the cells once with PBS, using RNeasy Mini Kit (QIAGEN) total RNA was prepared. Subsequently, using TaqMan Reverse Transcription Reagents (Applied Biosystems) cDNA was prepared. By TaqMan PCR method Using TaqMan Universal PCR Master Mix (Applied Biosystems), the expression level of GM3 synthase was quantified. As TaqMan probe and primers for mouse GM3 synthase, Assays-on-Demand (Mm00488232_ml) supplied from Applied Biosystems was used.
(§2) In quantification, an expression level of GAPDH was used as internal standard. By ΔΔCt method, relative value was calculated based on the conditions without treatment of IFN-γ as 1 (one).

human GM3 synthase [3] = assay: Effect of IFN-γ on expression of human GM3 synthase in THP-1 cells (TaqMan PCR); assay type: cell-based; conditions: 24 hours, THP-1 macrophage-like cells, without IFN-γ = 1
Method: THP-1 cells suspended in RPMI-1640 culture medium containing phorbol 12-myristeate 13-acetate (final concentration: […]), in which 10% FBS, 25 mM HEPES and Penicillin/Streptomycin were comprised, were seeded on 24-well plate at 1.0×10^6 cells/well and treated, for 3 (three) days to differentiate into macrophage-like cells. After washing the cells with PBS, RPMI-1640 culture medium containing human recombinant IFN-γ at a prescribed concentration was added to the cells. Subsequently, the cells were cultured for 24 hours.
As TaqMan probe and primers for human GM3 synthase, Assays-on-Demand (Hs00187405 ml) supplied from Applied Biosystems was used.
as §2

## Nc1ccn([C@@H]2O[C@H](COP(=O)(O)O)[C@@H](O)[C@H]2O)c(=O)n1 [CMP, cytidine mono phosphate]
Human GM3 synthase [1]; CMP 0.04 mM
  GM3 synthase activity (relative value): 1.01
Human GM3 synthase [1]; CMP 0.12 mM
  GM3 synthase activity (relative value): 0.73
Human GM3 synthase [1]; CMP 0.4 mM
  GM3 synthase activity (relative value): 0.58
Human GM3 synthase [1]; CMP 1.2 mM
  GM3 synthase activity (relative value): 0.32
Human GM3 synthase [1]; CMP 4 mM
  GM3 synthase activity (relative value): 0.28
Human GM3 synthase [2]; CMP 0.1 mM
  GM3 synthase activity: 46 nmol/mg/h
Human GM3 synthase [2]; CMP 0.3 mM
  GM3 synthase activity: 27 nmol/mg/h
Human GM3 synthase [2]; CMP 1 mM
  GM3 synthase activity: 12 nmol/mg/h
Human GM3 synthase [2]; CMP 3 mM
  GM3 synthase activity: 5 nmol/mg/h
Human GM3 synthase [2]; CMP 10 mM
  GM3 synthase activity: 7 nmol/mg/h

## SH1: retrovirus expressing shRNA (short hairpin RNA) sequence SEQ ID NO: 5 targeting GM3 synthase (GAAGACCCAGCTTGTTAATGTGTGCTGTCCATTAACAAGCTGGGTCTTCTTTTT)
GM3 synthase
  GM3 synthase activity (relative value): 0.3
RAW264.7 strain
  cholesterol transporting activity (relative value): 1.3

## SH3: retrovirus expressing shRNA (short hairpin RNA) sequence SEQ ID NO: 6 targeting GM3 synthase (GCCAATGATTTGTTCGTTAGTGTGCTGTCCTAACGAACAAATCATTGGCTTTTT)
GM3 synthase
  GM3 synthase activity (relative value): 0.5
RAW264.7 strain
  cholesterol transporting activity (relative value): 1.1

## mIFN-γ: mouse recombinant IFN-γ, known as the atherogenic cytokine
Mouse GM3 synthase; mIFN-γ 1 U/mL
  Expression (mouse GM3 synthase mRNA, relative value): 4
Mouse GM3 synthase; mIFN-γ 10 U/mL
  Expression (mouse GM3 synthase mRNA, relative value): 25

B1: hIFN-γ: human recombinant IFN-γ (protein, UniProt P01579 24-161, looked up)
Interferon gamma: QDPYVKEAENLKKYFNAGHSDVADNGTLFLGILKNWKEESDRKIMQSQIVSFYFKLFKNFKDDQSIQKSVETIKEDMNVKFFNSNKKKRDDFEKLTNYSVTDLNVQRKAIHELIQVMAELSPAAKTGKRKRSQMLFRG
Human GM3 synthase [3]; hIFN-γ 10 ng/mL
  Expression level (human GM3 synthase mRNA, relative value): 2.6
Human GM3 synthase [3]; hIFN-γ 30 ng/mL
  Expression level (human GM3 synthase mRNA, relative value): 2.4
